Measurements taken from PMC7753999, “Molecular docking‐assisted screening reveals tannic acid as a natural protein disulphide isomerase inhibitor with antiplatelet and antithrombotic activities” (Journal of Cellular and Molecular Medicine, 2020).
pKd: −log10 of the molar value.

Assays:
ERp57 = biological target: T1, ERp57 (Homo sapiens, UniProt P30101); experiment: Di-E-GSSG fluorescence reductase assay, recombinant enzyme […]; type: biochemical
T1 construct: gene PDIA3
T1 sequence (P30101 25-505): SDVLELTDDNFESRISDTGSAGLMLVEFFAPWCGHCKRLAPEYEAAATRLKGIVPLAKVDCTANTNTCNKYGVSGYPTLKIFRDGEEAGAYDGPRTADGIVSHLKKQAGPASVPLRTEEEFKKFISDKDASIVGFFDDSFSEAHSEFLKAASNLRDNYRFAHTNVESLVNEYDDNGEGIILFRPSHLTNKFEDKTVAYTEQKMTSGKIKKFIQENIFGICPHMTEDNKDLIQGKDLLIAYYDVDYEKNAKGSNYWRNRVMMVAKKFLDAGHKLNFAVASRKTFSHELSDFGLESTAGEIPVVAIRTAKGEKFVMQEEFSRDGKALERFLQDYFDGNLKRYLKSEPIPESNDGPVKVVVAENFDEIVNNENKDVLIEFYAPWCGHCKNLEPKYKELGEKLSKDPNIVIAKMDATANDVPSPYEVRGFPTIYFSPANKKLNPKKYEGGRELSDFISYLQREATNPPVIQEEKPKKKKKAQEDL

[1] = biological target: T2, Protein disulphide isomerase (PDI) (Homo sapiens, UniProt P07237); experiment: SPR with immobilized recombinant human PDI; also inhibits in Di-E-GSSG reductase and insulin reduction assays; type: binding
T2 construct: gene P4HB
T2 sequence (P07237 18-508): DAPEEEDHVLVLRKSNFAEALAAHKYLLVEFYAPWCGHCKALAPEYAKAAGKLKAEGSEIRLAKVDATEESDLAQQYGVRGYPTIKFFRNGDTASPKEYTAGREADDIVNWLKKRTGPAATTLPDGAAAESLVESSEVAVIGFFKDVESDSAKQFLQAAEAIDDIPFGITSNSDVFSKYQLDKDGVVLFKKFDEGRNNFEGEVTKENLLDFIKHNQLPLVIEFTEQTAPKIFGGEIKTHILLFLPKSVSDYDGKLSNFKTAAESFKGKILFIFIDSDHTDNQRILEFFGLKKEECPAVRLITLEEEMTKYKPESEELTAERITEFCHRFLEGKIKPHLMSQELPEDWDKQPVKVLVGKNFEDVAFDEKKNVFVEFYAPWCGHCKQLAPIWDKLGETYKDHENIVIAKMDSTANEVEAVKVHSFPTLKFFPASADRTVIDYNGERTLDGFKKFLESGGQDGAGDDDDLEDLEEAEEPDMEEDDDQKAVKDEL

ERp72 = biological target: T3, ERp72 (Homo sapiens, UniProt P13667); experiment: Di-E-GSSG fluorescence reductase assay, recombinant enzyme […]; type: biochemical
T3 construct: gene PDIA4
T3 sequence (P13667 21-645): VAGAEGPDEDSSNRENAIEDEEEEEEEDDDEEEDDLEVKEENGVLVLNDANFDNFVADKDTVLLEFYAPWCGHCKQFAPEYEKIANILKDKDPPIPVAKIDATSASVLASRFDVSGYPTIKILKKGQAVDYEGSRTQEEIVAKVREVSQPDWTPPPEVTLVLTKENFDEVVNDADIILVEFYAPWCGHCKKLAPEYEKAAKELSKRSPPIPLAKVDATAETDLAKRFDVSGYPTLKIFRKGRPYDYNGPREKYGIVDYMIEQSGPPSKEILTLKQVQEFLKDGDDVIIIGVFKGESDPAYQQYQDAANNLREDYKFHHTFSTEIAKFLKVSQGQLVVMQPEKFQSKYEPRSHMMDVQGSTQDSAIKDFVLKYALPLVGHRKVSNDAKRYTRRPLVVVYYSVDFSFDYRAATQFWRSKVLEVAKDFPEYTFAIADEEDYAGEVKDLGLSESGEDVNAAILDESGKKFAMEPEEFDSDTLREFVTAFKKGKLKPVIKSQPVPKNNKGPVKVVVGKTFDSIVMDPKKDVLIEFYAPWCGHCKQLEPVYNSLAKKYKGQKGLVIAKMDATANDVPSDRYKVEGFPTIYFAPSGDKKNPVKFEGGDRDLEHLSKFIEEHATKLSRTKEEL

O=C(OC[C@H]1O[C@@H](OC(=O)c2cc(O)c(O)c(OC(=O)c3cc(O)c(O)c(O)c3)c2)[C@H](OC(=O)c2cc(O)c(O)c(OC(=O)c3cc(O)c(O)c(O)c3)c2)[C@@H](OC(=O)c2cc(O)c(O)c(OC(=O)c3cc(O)c(O)c(O)c3)c2)[C@@H]1OC(=O)c1cc(O)c(O)c(OC(=O)c2cc(O)c(O)c(O)c2)c1)c1cc(O)c(O)c(OC(=O)c2cc(O)c(O)c(O)c2)c1 [TA, Tannic acid]
Di-E-GSSG fluorescence reductase assay, recombinant enzyme 20 nmol/L (ERp57): TA impaired the reductase activity of other platelet PDI family members ERP57 and ERP72 | pKd [1]: > 8.77 | Di-E-GSSG fluorescence reductase assay, recombinant enzyme 20 nmol/L (ERp72): TA impaired the reductase activity of other platelet PDI family members ERP57 and ERP72
